Measurements published in PMC9232501, “Results of the phase I CCTG IND.231 trial of CX-5461 in patients with advanced solid tumors enriched for DNA-repair deficiencies” (Nature Communications, 2022).

Test system: HCT116 cells
Experiment: ROS measurement with H2DCFDA before/after UVA 125 mJ/cm^2
Format: cell-based, Human
Conditions: CX-5461 0.1 μM or PDS 10 μM for 1 h
Procedure: ROS measurement with H2DCFDA: HCT116 cells were treated with vehicle, CX-5461 0.1 μM or PDS 10 μM for 1 h, then were added with H2DCFDA for 45 min before initial fluorescence measurement. Cells were then irradiated with UVA 125 mJ/cm^2, and immediately sent for a second fluorescent measurement. The ratio of the second and the first fluorescent measurement was calculated as the level of ROS induced by UVA. Assays were performed in the 1-hour time frame within which UV damage manifests, in contrast to G4 ligand-induced damage which takes 3–4 h to be measurable.
Supplementary Figures and Tables
Supplementary Figure 1. UVA radiation increased double-stranded DNA breaks and ROS.
Representative pictures of g -H2AX immunofluorescent staining with and without UVA radiation, for […]
condition, quantified in (b) Quantile and mean intensity of g-H2AX level per cell, vertical axis. UV and drug factor conditions, horizontal axis. Experiments were repeated two times (biological duplicates) and similar results were obtained. Number of cells as in Figure 5 g (c) The ratio of ROS level measured after UVA irradiation versus before UVA irradiation was calculated. Biological triplicates. The horizontal bar = median. ***P<0.0001, Welch’s t-test; n=8
(1 picture or pasted object on this page, not shown here)

Cc1cnc(CNC(=O)c2c(=O)c3ccc(N4CCCN(C)CC4)nc3n3c2sc2ccccc23)cn1 [CX-5461]
ROS in the presence of UVA (ratio after/before UVA): markedly increased
